Assay results as given in ChEMBL document CHEMBL4402530, “New dimensions in the field of antimalarial research against malaria resurgence” (Eur J Med Chem, 2019).

Columns and labels:
[1] = tested on: Plasmodium falciparum; assay: Antiparasitic activity against Plasmodium falciparum D6; format: functional, organism-based
[2] = tested on: Plasmodium falciparum; assay: Antiparasitic activity against Plasmodium falciparum 3D7; format: functional, organism-based
[3] = tested on: Plasmodium falciparum; assay: Antiparasitic activity against Plasmodium falciparum infected in human PBMC; format: functional, organism-based
[4] = tested on: Plasmodium falciparum; assay: Antiparasitic activity against Plasmodium falciparum infected in mouse; format: functional
[5] = tested on: Plasmodium falciparum; assay: Antiparasitic activity against Plasmodium falciparum infected in SCID mouse; format: functional
[6] = tested on: Plasmodium falciparum; assay: Antiparasitic activity against Plasmodium falciparum; format: functional, organism-based
[7] = tested on: Plasmodium falciparum; assay: Antiparasitic activity against Plasmodium falciparum W2; format: functional, organism-based
[8] = tested on: Plasmodium falciparum; assay: Antiparasitic activity against Plasmodium falciparum TM91C235; format: functional, organism-based
[9] = tested on: Plasmodium falciparum; assay: Antiparasitic activity against Plasmodium falciparum […]; format: functional, organism-based
[10] = tested on: Plasmodium falciparum; assay: Antiparasitic activity against Plasmodium falciparum infected in human HepG2 cells; format: functional, organism-based
[11] = Selectivity index, ratio of IC50 for African green Monkey BGM cells to IC50 for chloroquine-resistant Plasmodium falciparum W2; format: toxicity; conditions: read-out: Selectivity Index
[12] = tested on: Plasmodium falciparum; assay: Antiparasitic activity against chloroquine-resistant Plasmodium falciparum Dd2; format: functional, organism-based
[13] = tested on: Plasmodium falciparum; assay: Antiparasitic activity against Plasmodium falciparum Dd2; format: functional, organism-based
[14] = tested on: Plasmodium falciparum; assay: Antiparasitic activity against Plasmodium falciparum D10; format: functional, organism-based
[15] = tested on: Plasmodium falciparum; assay: Antiparasitic activity against Plasmodium falciparum K1; format: functional, organism-based
[16] = tested on: Plasmodium falciparum; assay: Antiparasitic activity against Plasmodium falciparum Tm90; format: functional, organism-based
[17] = tested on: Plasmodium falciparum; assay: Antiparasitic activity against Plasmodium falciparum C2B; format: functional, organism-based
[18] = tested on: Plasmodium berghei; assay: Antiparasitic activity against Plasmodium berghei ANKA infected in mouse assessed as mouse survival; format: functional
[19] = tested on: Plasmodium berghei; assay: Antiparasitic activity against Plasmodium berghei ANKA infected in CD1 mouse assessed as reduction in parasitemia; format: functional

SMILES: COc1cc2[nH]c(C)c(-c3ccc(Oc4ccc(OC(F)(F)F)cc4)cc3)c(=O)c2cc1Cl
- EC50 [1]: 1.3 to 13.6 nM
- EC50 ([2]; Plasmodium falciparum, 3D7): 1.3 to 13.6 nM
- EC50 [3]: 1.3 to 13.6 nM
- ED50 [4]: 0.016 mg/kg
- ED50 [5]: 6 mg/kg
- EC50 [6]: 0.58 nM

SMILES: CC(=O)O[C@@H]1CC[C@@]2(C)[C@@H](C1)C[C@@H](OC(C)=O)[C@@H]1[C@@H]2C[C@H](OC(C)=O)[C@]2(C)[C@@H]([C@H](C)CCCNCCCNc3ccnc4cc(Cl)ccc34)CC[C@@H]12
- IC50 ([7]; Plasmodium falciparum, W2): 2.63 to 13.8 nM

SMILES: CC(=O)O[C@H]1C[C@H]2[C@@H]([C@H](OC(C)=O)C[C@@H]3C[C@H](O)CC[C@@]32C)[C@@H]2CC[C@H]([C@H](C)CCCNCCNc3ccnc4cc(Cl)ccc34)[C@@]12C
- IC50 ([7]; Plasmodium falciparum, W2): 2.63 to 13.8 nM
- IC50 [1]: 1.35 to 14.1 nM

SMILES: CC(=O)O[C@H]1C[C@H]2[C@@H]([C@H](OC(C)=O)C[C@@H]3CC(=O)CC[C@@]32C)[C@@H]2CC[C@H]([C@H](C)CCCNCCNc3ccnc4cc(Cl)ccc34)[C@@]12C
- IC50 ([7]; Plasmodium falciparum, W2): 2.63 to 13.8 nM
- IC50 [1]: 1.35 to 14.1 nM

SMILES: CC(=O)O[C@H]1C[C@H]2[C@@H]([C@H](OC(C)=O)C[C@@H]3CC(=O)CC[C@@]32C)[C@@H]2CC[C@H]([C@H](C)CCCNCCCNc3ccnc4cc(Cl)ccc34)[C@@]12C
- IC50 ([7]; Plasmodium falciparum, W2): 2.63 to 13.8 nM
- IC50 [1]: 1.35 to 14.1 nM

SMILES: CC(=O)O[C@@H]1CC[C@@]2(C)[C@@H](C1)C[C@@H](OC(C)=O)[C@@H]1[C@@H]2C[C@H](OC(C)=O)[C@]2(C)[C@@H]([C@H](C)CCCN(C)CCCNc3ccnc4cc(Cl)ccc34)CC[C@@H]12
- IC50 ([7]; Plasmodium falciparum, W2): 2.63 to 13.8 nM

SMILES: CC(=O)O[C@H]1C[C@H]2[C@@H]([C@H](OC(C)=O)C[C@@H]3C[C@H](NC(=O)OC(C)(C)C)CC[C@@]32C)[C@@H]2CC[C@H]([C@H](C)CCCNCCNc3ccnc4cc(Cl)ccc34)[C@@]12C
- IC50 [1]: 1.35 to 14.1 nM

SMILES: CC(=O)O[C@H]1C[C@H]2[C@@H]([C@H](OC(C)=O)C[C@@H]3C[C@H](NS(C)(=O)=O)CC[C@@]32C)[C@@H]2CC[C@H]([C@H](C)CCCN(C)CCNc3ccnc4cc(Cl)ccc34)[C@@]12C
- IC50 ([7]; Plasmodium falciparum, W2): 2.63 to 13.8 nM
- IC50 [1]: 1.35 to 14.1 nM

SMILES: CC(=O)O[C@H]1C[C@H]2[C@@H]([C@H](OC(C)=O)C[C@@H]3C[C@H](NC(=O)OC(C)(C)C)CC[C@@]32C)[C@@H]2CC[C@H]([C@H](C)CCCN(C)CCNc3ccnc4cc(Cl)ccc34)[C@@]12C
- IC50 ([7]; Plasmodium falciparum, W2): 2.63 to 13.8 nM

SMILES: CC(=O)O[C@H]1C[C@H]2[C@@H]([C@H](OC(C)=O)C[C@@H]3C[C@H](N)CC[C@@]32C)[C@@H]2CC[C@H]([C@H](C)CCCN(C)CCNc3ccnc4cc(Cl)ccc34)[C@@]12C
- IC50 ([7]; Plasmodium falciparum, W2): 3.74 nM
- IC50 [1]: 4.46 nM
- IC50 [8]: 9.2 nM
- IC50 [9]: 1140 nM
- IC50 [10]: > 1000 nM
- IC50 [3]: > 1000 nM

SMILES: CC(=O)O[C@H]1C[C@H]2[C@@H]([C@H](OC(C)=O)C[C@@H]3C[C@H](N(C)C)CC[C@@]32C)[C@@H]2CC[C@H]([C@H](C)CCCN(C)CCNc3ccnc4cc(Cl)ccc34)[C@@]12C
- IC50 [1]: 2.63 nM
- IC50 [8]: 3.32 nM
- IC50 [9]: 2270 nM

SMILES: COc1cc2[nH]c(C)c(-c3ccc(Oc4ccc(OC(F)(F)F)cc4)cc3F)c(=O)c2cc1Cl
- EC50 [1]: 3.18 to 32.3 nM
- EC50 ([2]; Plasmodium falciparum, 3D7): 3.18 to 32.3 nM
- EC50 [3]: 3.18 to 32.3 nM
- ED50 [4]: 0.3 mg/kg
- EC50 [6]: 1.06 nM

SMILES: O=Cc1cn(-c2ccnc3cc(Cl)ccc23)nn1
- selectivity ratio [11]: 351

SMILES: NS(=O)(=O)c1cccc(-n2cc(CCNc3ccnc4cc(Cl)ccc34)nn2)c1
- IC50 [12]: 600 nM
- IC50 ([2]; Plasmodium falciparum, 3D7): 600 nM

SMILES: CC(C)=CC(=O)O[C@@H]1C[C@@]2(C)[C@@H](C=C1C)O[C@@H]1[C@H](O)[C@@H](O)[C@@]2(C)[C@]12CO2
- IC50 [7]: 370 nM
- IC50 [2]: 29 nM

SMILES: CC(CCNc1ccnc2cc(Cl)ccc12)NCCO[C@H]1O[C@@H]2O[C@@]3(C)CC[C@H]4[C@H](C)CC[C@@H]([C@H]1C)[C@@]24OO3 (stereo partly drawn)
- IC50 [13]: 12.2 nM
- IC50 [14]: 17.1 nM

SMILES: NS(=O)(=O)c1ccc(-n2cc(CCCNc3ccnc4cc(Cl)ccc34)nn2)cc1
- IC50 [12]: 600 nM
- IC50 ([2]; Plasmodium falciparum, 3D7): 600 nM

SMILES: NS(=O)(=O)c1ccc(-n2cc(CNc3ccnc4cc(Cl)ccc34)nn2)cc1
- IC50 [12]: 600 nM
- IC50 ([2]; Plasmodium falciparum, 3D7): 600 nM

SMILES: O=C(N/N=C/c1ccc(Br)cc1)C(=O)Nc1ccc(Nc2ccnc3cc(Cl)ccc23)cc1
- IC50 [15]: 52 nM
- IC50 ([2]; Plasmodium falciparum, 3D7): 19.7 nM

SMILES: CCCCCCCc1c(C)nc2cc(F)cc(F)c2c1OC(=O)OCCOCCOCCOCCOC
- IC50 [1]: 0.05 nM
- IC50 [13]: 0.4 nM
- IC50 [16]: 81 nM
- IC50 [17]: 146 nM

SMILES: CC(C)(C)c1ccc(/C=N/NC(=O)C(=O)Nc2ccc(Nc3ccnc4cc(Cl)ccc34)cc2)cc1
- IC50 [15]: 52 nM
- IC50 ([2]; Plasmodium falciparum, 3D7): 19.7 nM

SMILES: OC(CN1CCC2(CC1)CC(O)c1ccc3ccccc3c1O2)c1ccc(F)c(F)c1 (stereo not drawn)
- EC50 [12]: 350 nM
- Survival [18]: >1.7 days

SMILES: CC(C)(C)NCc1cc(Nc2ccnc3cc(Cl)ccc23)ccc1F
- ED50 [19]: 5.3 mg/kg

SMILES: NS(=O)(=O)c1ccc(-n2cc(CCNc3ccnc4cc(Cl)ccc34)nn2)cc1
- IC50 [12]: 600 nM
- IC50 ([2]; Plasmodium falciparum, 3D7): 600 nM

SMILES: NS(=O)(=O)c1cccc(-n2cc(CNc3ccnc4cc(Cl)ccc34)nn2)c1
- IC50 [12]: 600 nM
- IC50 ([2]; Plasmodium falciparum, 3D7): 600 nM

SMILES: COc1cc(NC(C)CCCNCc2ccc(CO[C@H]3O[C@@H]4O[C@@]5(C)CC[C@H]6[C@H](C)CC[C@@H]([C@H]3C)[C@@]46OO5)cc2)c2ncccc2c1 (stereo partly drawn)
- IC50 ([7]; Plasmodium falciparum, W2): 112 nM

SMILES: Cc1[nH]c2cc(F)cc(F)c2c(=O)c1CCCCCCCl
- IC50 [1]: 0.05 nM
- IC50 [13]: 0.4 nM
- IC50 [16]: 81 nM
- IC50 [17]: 146 nM

SMILES: NS(=O)(=O)c1cccc(-n2cc(CCCNc3ccnc4cc(Cl)ccc34)nn2)c1
- IC50 [12]: 600 nM
- IC50 ([2]; Plasmodium falciparum, 3D7): 600 nM

SMILES: O[C@@H](c1cc(C(F)(F)F)nc2c(C(F)(F)F)cccc12)[C@H]1CCCCN1 [(S,R)-MEFLOQUINE]
- IC50 [1]: 15.2 nM

SMILES: C[C@H]1Cc2c([nH]c3cc(Cl)c(F)cc23)[C@@]2(N1)C(=O)Nc1ccc(Cl)cc12 [CIPARGAMIN]
- ED50 [4]: 1 mg/kg
- ED90 [4]: 3 mg/kg
- ED99 [4]: 5 mg/kg

SMILES: CC(C)c1cc2c(cc1O)[C@@]1(C)CCCC(C)(C)[C@@H]1CC2 [FERRUGINOL]
- IC50 ([7]; Plasmodium falciparum, W2): 0.9 to 4.2 µg/mL
- IC50 [1]: 0.9 to 4.2 µg/mL
- IC50 [15]: 0.9 to 4.2 µg/mL
- IC50 [14]: 0.9 to 4.2 µg/mL
